{"source": "patent US6319702A", "about": "“Nucleic acids encoding mutant human carboxypeptidase A enzymes” (Glaxo Wellcome, Inc., priority 1993, dated 2001)", "key": {"[1]": {"assay": "in vivo", "settings": "mouse, iv"}, "[2]": {"settings": "mouse, in vivo, iv"}, "[3]": {"tested_on": "mutant enzyme", "assay": "Substrate behaviour with mutant enzyme", "assay_type": "biochemical, human", "from_the_text": "This type of compound is not useful for ADEPT."}, "[4]": {"target": "T1, wild type human carboxypeptidase A1 (Homo sapiens, UniProt P15085)", "T1 sequence (P15085 111-419)": "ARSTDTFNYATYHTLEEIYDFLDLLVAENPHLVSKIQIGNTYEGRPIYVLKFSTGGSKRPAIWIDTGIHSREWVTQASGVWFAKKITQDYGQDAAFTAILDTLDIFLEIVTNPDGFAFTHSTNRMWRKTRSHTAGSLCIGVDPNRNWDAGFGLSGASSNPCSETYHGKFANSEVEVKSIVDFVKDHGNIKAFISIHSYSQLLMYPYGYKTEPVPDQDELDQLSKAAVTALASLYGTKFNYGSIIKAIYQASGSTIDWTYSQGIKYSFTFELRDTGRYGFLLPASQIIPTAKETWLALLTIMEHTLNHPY", "assay": "Enzyme kinetics of prodrugs with wild type human carboxypeptidase A1 (coupled assay)", "assay_type": "biochemical", "procedure,_shortened": "(§1)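 Coupled spectrophotometric assay: released methotrexate converted by excess carboxypeptidase G (17 milliunits) to its pteroate, followed at 315 nm (Δε 9.57 mM^-1 cm^-1). 25° C in 25 mM tris-HCl, 100 mM NaCl, pH 7.4; reaction started with wild-type or mutant carboxypeptidase A. Kinetic constants from initial velocities by Michaelis-Menten analysis.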"}, "[5]": {"assay": "Stability and biodistribution of prodrugs in vivo (HPLC of plasma and tissues)", "design": "species or system mice (CD-1 nude; BALB/C where indicated)"}, "[6]": {"tested_on": "268ala", "assay": "Enzyme kinetics of prodrugs with 268ala mutant of human CPA1 (coupled assay)", "assay_type": "biochemical", "settings": "25° C., pH 7.4", "procedure,_shortened": "as §1"}, "[7]": {"tested_on": "268gly", "assay": "Enzyme kinetics of prodrugs with 268gly mutant of human CPA1 (coupled assay)", "assay_type": "biochemical", "procedure,_shortened": "as §1"}}, "note": "Where two headings read alike, the source gives them in different places."}
{"molecule": "CN(Cc1cnc2nc(N)nc(N)c2n1)c1ccc(C(=O)N[C@@H](CCC(=O)O)C(=O)N[C@@H](Cc2ccc(O)c(C3CCCC3)c2)C(=O)O)cc1", "note": "[Prodrug 13, N-(4-(((2,4-diamino-6-pteridinyl)methyl)methyamino)benzoyl)-L-glutam-1-yl-3-cyclopentyl-L-tyrosine]", "values": [{"measurement": "MTD", "setting": "[1]", "value": "≥ 50", "unit": "mg/kg"}, {"measurement": "maximum tolerated dose (MTD)", "setting": "[2]", "value": "> 50", "unit": "mg/kg"}, {"measurement": "substrate for a mutant enzyme (in words)", "setting": "[3]", "value": "good substrates for a mutant enzyme"}, {"measurement": "human CPA catalyzed reaction (in words)", "setting": "[4]", "value": "not measureable"}, {"measurement": "kcat/Km for human CPA1 compared with that of the L-phenylalanine prodrug (in words)", "setting": "[4]", "value": "much lower"}, {"measurement": "substrate for wild type CPA (in words)", "setting": "[4]", "value": "not for the wild type enzyme"}, {"measurement": "kcat (symbol ND)", "setting": "[4]; Human CPA1, rate too slow to assay", "value": "ND (not determined; rate to slow assay. kcat ≤ 0.0005/sec.)"}, {"measurement": "concentration of prodrug in cecum", "setting": "[5]; CECUM, 30 min, 50 mg/kg i.p. or i.v., CD-1 nude mice", "value": 14.4, "unit": "nmol/g"}, {"measurement": "concentration of prodrug in cecum", "setting": "[5]; CECUM, 120 min, 50 mg/kg i.p. or i.v., CD-1 nude mice", "value": 4.8, "unit": "nmol/g"}, {"measurement": "concentration of prodrug in feces", "setting": "[5]; FECES, 30 min, 50 mg/kg i.p. or i.v., CD-1 nude mice", "value": 665.8, "unit": "nmol/g"}, {"measurement": "concentration of prodrug in feces", "setting": "[5]; FECES, 120 min, 50 mg/kg i.p. or i.v., CD-1 nude mice", "value": 738.4, "unit": "nmol/g"}, {"measurement": "concentration of prodrug in kidney", "setting": "[5]; KIDNEY, 30 min, 50 mg/kg i.p. or i.v., CD-1 nude mice", "value": 3.7, "unit": "nmol/g"}, {"measurement": "concentration of prodrug in kidney", "setting": "[5]; KIDNEY, 120 min, 50 mg/kg i.p. or i.v., CD-1 nude mice", "value": 0.5, "unit": "nmol/g"}, {"measurement": "concentration of prodrug in large intestine", "setting": "[5]; LARGE INTESTINE, 30 min, 50 mg/kg i.p. or i.v., CD-1 nude mice", "value": 7.9, "unit": "nmol/g"}, {"measurement": "concentration of prodrug in large intestine", "setting": "[5]; LARGE INTESTINE, 120 min, 50 mg/kg i.p. or i.v., CD-1 nude mice", "value": 12.5, "unit": "nmol/g"}, {"measurement": "concentration of prodrug in liver", "setting": "[5]; LIVER, 30 min, 50 mg/kg i.p. or i.v., CD-1 nude mice", "value": 47.7, "unit": "nmol/g"}, {"measurement": "concentration of prodrug in liver", "setting": "[5]; LIVER, 120 min, 50 mg/kg i.p. or i.v., CD-1 nude mice", "value": 129.0, "unit": "nmol/g"}, {"measurement": "concentration of prodrug in small intestine", "setting": "[5]; SMALL INTESTINE, 30 min, 50 mg/kg i.p. or i.v., CD-1 nude mice", "value": 373.7, "unit": "nmol/g"}, {"measurement": "concentration of prodrug in small intestine", "setting": "[5]; SMALL INTESTINE, 120 min, 50 mg/kg i.p. or i.v., CD-1 nude mice", "value": 322.1, "unit": "nmol/g"}, {"measurement": "concentration of prodrug in spleen", "setting": "[5]; SPLEEN, 30 min, 50 mg/kg i.p. or i.v., CD-1 nude mice", "value": 0.6, "unit": "nmol/g"}, {"measurement": "concentration of prodrug in spleen", "setting": "[5]; SPLEEN, 120 min, 50 mg/kg i.p. or i.v., CD-1 nude mice", "value": 0.2, "unit": "nmol/g"}, {"measurement": "stability in vivo (in words)", "setting": "[5]; mice, 50 mg/kg", "value": "stable in vivo"}, {"measurement": "remaining at 0.5 h", "setting": "[5]; mouse, cecum, 50 mg/kg, CECUM, 30 min, 50 mg/kg i.p. or i.v., CD-1 nude mice, read-out: stability: percentage of material observed as intact prodrug, cecum", "value": 100, "unit": "%"}, {"measurement": "remaining at 2 h", "setting": "[5]; mouse, cecum, 50 mg/kg, CECUM, 120 min, 50 mg/kg i.p. or i.v., CD-1 nude mice, read-out: stability: percentage of material observed as intact prodrug, cecum", "value": 100, "unit": "%"}, {"measurement": "remaining at 0.5 h", "setting": "[5]; mouse, feces, 50 mg/kg, FECES, 30 min, 50 mg/kg i.p. or i.v., CD-1 nude mice, read-out: stability: percentage of material observed as intact prodrug, feces (converted)", "value": 100, "unit": "%"}, {"measurement": "remaining at 2 h", "setting": "[5]; mouse, feces, 50 mg/kg, FECES, 120 min, 50 mg/kg i.p. or i.v., CD-1 nude mice, read-out: stability: percentage of material observed as intact prodrug, feces", "value": 100, "unit": "%"}, {"measurement": "remaining at 0.5 h", "setting": "[5]; mouse, kidney, 50 mg/kg, KIDNEY, 30 min, 50 mg/kg i.p. or i.v., CD-1 nude mice, read-out: stability: percentage of material observed as intact prodrug, kidney", "value": 100, "unit": "%"}, {"measurement": "remaining at 2 h", "setting": "[5]; mouse, kidney, 50 mg/kg, KIDNEY, 120 min, 50 mg/kg i.p. or i.v., CD-1 nude mice, read-out: stability: percentage of material observed as intact prodrug, kidney", "value": 100, "unit": "%"}, {"measurement": "remaining at 0.5 h", "setting": "[5]; mouse, large intestine, 50 mg/kg, LARGE INTESTINE, 30 min, 50 mg/kg i.p. or i.v., CD-1 nude mice, read-out: stability: percentage of material observed as intact prodrug, large intestine", "value": 100, "unit": "%"}, {"measurement": "remaining at 2 h", "setting": "[5]; mouse, large intestine, 50 mg/kg, LARGE INTESTINE, 120 min, 50 mg/kg i.p. or i.v., CD-1 nude mice, read-out: stability: percentage of material observed as intact prodrug, large intestine", "value": 100, "unit": "%"}, {"measurement": "remaining at 0.5 h", "setting": "[5]; mouse, liver, 50 mg/kg, LIVER, 30 min, 50 mg/kg i.p. or i.v., CD-1 nude mice, read-out: stability: percentage of material observed as intact prodrug, liver (converted)", "value": 100, "unit": "%"}, {"measurement": "remaining at 2 h", "setting": "[5]; mouse, liver, 50 mg/kg, LIVER, 120 min, 50 mg/kg i.p. or i.v., CD-1 nude mice, read-out: stability: percentage of material observed as intact prodrug, liver", "value": 100, "unit": "%"}, {"measurement": "concentration at 0.5 h", "setting": "[5]; mouse, plasma, 50 mg/kg, PLASMA, 30 min, 50 mg/kg i.p. or i.v., CD-1 nude mice, read-out: concentration of prodrug in plasma", "value": 3300, "unit": "nM"}, {"measurement": "remaining at 0.5 h", "setting": "[5]; mouse, plasma, 50 mg/kg, PLASMA, 30 min, 50 mg/kg i.p. or i.v., CD-1 nude mice, read-out: stability: percentage of material observed as intact prodrug, plasma", "value": 100, "unit": "%"}, {"measurement": "concentration at 2 h", "setting": "[5]; mouse, plasma, 50 mg/kg, PLASMA, 120 min, 50 mg/kg i.p. or i.v., CD-1 nude mice, read-out: concentration of prodrug in plasma", "value": 600, "unit": "nM"}, {"measurement": "remaining at 2 h", "setting": "[5]; mouse, plasma, 50 mg/kg, PLASMA, 120 min, 50 mg/kg i.p. or i.v., CD-1 nude mice, read-out: stability: percentage of material observed as intact prodrug, plasma", "value": 100, "unit": "%"}, {"measurement": "remaining at 0.5 h", "setting": "[5]; mouse, small intestine, 50 mg/kg, SMALL INTESTINE, 30 min, 50 mg/kg i.p. or i.v., CD-1 nude mice, read-out: stability: percentage of material observed as intact prodrug, small intestine", "value": 100, "unit": "%"}, {"measurement": "remaining at 2 h", "setting": "[5]; mouse, small intestine, 50 mg/kg, SMALL INTESTINE, 120 min, 50 mg/kg i.p. or i.v., CD-1 nude mice, read-out: stability: percentage of material observed as intact prodrug, small intestine", "value": 100, "unit": "%"}, {"measurement": "remaining at 0.5 h", "setting": "[5]; mouse, spleen, 50 mg/kg, SPLEEN, 30 min, 50 mg/kg i.p. or i.v., CD-1 nude mice, read-out: stability: percentage of material observed as intact prodrug, spleen", "value": 100, "unit": "%"}, {"measurement": "remaining at 2 h", "setting": "[5]; mouse, spleen, 50 mg/kg, SPLEEN, 120 min, 50 mg/kg i.p. or i.v., CD-1 nude mice, read-out: stability: percentage of material observed as intact prodrug, spleen", "value": 100, "unit": "%"}, {"measurement": "Km", "setting": "[6]", "value": 50, "unit": "µM"}, {"measurement": "kcat", "setting": "[6]", "value": 0.0006, "unit": "s⁻¹"}, {"measurement": "kcat/Km", "setting": "[7]; 268Gly", "value": 180000, "unit": "M⁻¹ s⁻¹"}, {"measurement": "Km", "setting": "[7]; 268gly, 25° C., pH 7.4", "value": 18, "unit": "µM"}, {"measurement": "kcat", "setting": "[7]; 268gly, 25° C., pH 7.4", "value": 3, "unit": "s⁻¹"}]}
